The source of these data is publication PMC4942689, “Deciphering the function of the CNGB1b subunit in olfactory CNG channels” (Scientific Reports, 2016).

For one assay, the target named is T1, CNGA2RE:B1b (Rattus norvegicus, UniProt A0A8I5ZN27+Q00195, R538E).
T1 construct: expressed in transfected cells; host or cells: Xenopus laevis oocytes (cRNA injection), excised patches
Description: Ligand binding, confocal patch-clamp fluorometry. Further details: key to Ligand binding to CNGB1b: +: ligand binding to the respective modulatory subunits was either observed or not; −: ligand binding to the respective modulatory subunits was either observed or not. To be noted: for Ligand binding to CNGB1b: construct CNGA2RE:B1b. The source says:
(§1) The channels to be studied were expressed in Xenopus oocytes. We first tested the subunit composition in our channels when coexpressing different combinations of subunits by single-channel recordings. For CNGA2:A4, CNGA2:B1b and CNGA2:A4:B1b channels we exclusively obtained the specific and easily distinguishable single-channel activity reported earlier when injecting respective amounts of RNA[7][13]. We therefore assumed that the channels formed had always the expected subunit composition. The specific binding of cyclic nucleotides and the activation of the CNG channels were measured in parallel by means of confocal patch-clamp fluorometry in excised patches, using fluorescent cyclic nucleotide derivatives. The method has been described previously.
To study ligand binding to the CNGB1b subunit selectively, the binding domain of the CNGA2 subunits was disabled by either the point mutation R538E (red crosses in the cartoons) or T539M (blue crosses in the cartoons)[13][20]. […] To this end, CNGB1b was coexpressed with CNGA2RE.
(§2) The ligand binding was measured in macropatches by patch-clamp fluorometry[41][42] combined with confocal microscopy. […] Recordings were performed with an LSM 510 or 710 confocal microscope (Zeiss, Jena, Germany) and were triggered by the ISO3 software (MFK, Niedernhausen, Germany). To distinguish between the fluorescence of the unbound ligands from that of the bound ligands, a second dye, DY647 (Dyomics, Jena, Germany), was added to the bath solution. The 543-nm and 633-nm lines of a He-Ne laser were used to excite fcAMP/fcGMP and DY647, respectively. The method of confocal patch-clamp fluorometry has been described in detail previously.
In general terms: The patch-clamp technique gives a direct electrical read-out from membranes.

Another assay addresses T2, CNGA2:A4:B1b channels (Rattus norvegicus, UniProt A0A8I5ZN27+Q00195+Q64359).
T2 construct: expressed in transfected cells; host or cells: Xenopus laevis oocytes (cRNA injection 2:1:1), excised inside-out patches
Description: Concentration-activation relationship, inside-out patch-clamp. It counts as biochemical. As for the experimental part:
(§3) Patch-clamp experiments were performed using an Axopatch 200B amplifier (Molecular Devices LLC, CA, U.S.A.) in the inside-out configuration. The patch pipettes for recording of macroscopic currents were pulled from borosilicate glass tubing (outer diameter 2.0 mm, inner diameter 1.0 mm; Hilgenberg GmbH, Germany). The initial resistance was 0.7–1.3 MΩ. The patches were formed as pushed inside-out patches. […] Cyclic nucleotide concentration jumps were performed using a double-barreled glass pipette mounted on a piezo-driven device. Intracellular (bath) and extracellular (pipette) solutions contained (mM) 150 KCl, 1 EGTA, 5 Hepes, pH = 7.4 with KOH. […] Currents in the absence of the cyclic nucleotide were subtracted. All patches included in this study were first tested for channel expression in the presence of a saturating ligand concentration. Only patches with large current, i.e. a large number of channels, were included in our statistics. The currents were measured at +10 mV or, if mentioned, at +100 mV.
Fits of equations to data points were performed with the 8.1G® software (OriginLab Corporation, Northampton, U.S.A.). Concentration-activation relationships were obtained by relating the actual current amplitude, I, to the maximum current amplitude elicited by a saturating concentration of ligand, Imax, and plotting this ratio as function of the ligand concentration, x. The concentration-activation data were fitted using the Hill equation
where EC50 is the ligand concentration of half maximum effect and H the Hill coefficient.
In fHcAMP the dye DY547 is coupled to
(b) Concentration-activation relationships of the CNGA2:A4:B1b channels activated by either
The currents were recorded […]

The target of assay [1] is T3, CNGA2RE:A4RE:B1bRE (Rattus norvegicus, UniProt A0A8I5ZN27+Q00195+Q64359, R1106E/R430E/R538E).
T3 construct: expressed in transfected cells; host or cells: Xenopus laevis oocytes (cRNA injection), excised inside-out patches
T3 sequence (Q00195 whole entry R538E): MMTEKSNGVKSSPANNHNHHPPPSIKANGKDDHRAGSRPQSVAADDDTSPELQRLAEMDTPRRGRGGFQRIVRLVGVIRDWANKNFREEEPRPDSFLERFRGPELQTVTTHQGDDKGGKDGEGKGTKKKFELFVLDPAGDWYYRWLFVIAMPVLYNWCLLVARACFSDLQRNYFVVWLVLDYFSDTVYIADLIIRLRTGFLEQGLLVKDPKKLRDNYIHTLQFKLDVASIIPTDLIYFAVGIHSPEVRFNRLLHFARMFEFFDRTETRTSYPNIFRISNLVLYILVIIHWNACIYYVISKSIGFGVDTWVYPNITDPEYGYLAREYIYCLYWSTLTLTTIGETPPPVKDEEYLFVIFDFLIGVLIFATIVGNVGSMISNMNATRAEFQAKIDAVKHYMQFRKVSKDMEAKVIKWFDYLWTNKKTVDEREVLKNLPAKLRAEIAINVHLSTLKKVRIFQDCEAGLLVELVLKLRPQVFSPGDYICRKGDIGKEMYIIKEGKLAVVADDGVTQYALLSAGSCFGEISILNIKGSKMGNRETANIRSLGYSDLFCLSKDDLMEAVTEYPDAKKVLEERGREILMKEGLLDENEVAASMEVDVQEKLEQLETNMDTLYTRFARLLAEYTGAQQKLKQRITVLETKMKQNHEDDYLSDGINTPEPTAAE
T3 sequence (Q64359 whole entry R430E): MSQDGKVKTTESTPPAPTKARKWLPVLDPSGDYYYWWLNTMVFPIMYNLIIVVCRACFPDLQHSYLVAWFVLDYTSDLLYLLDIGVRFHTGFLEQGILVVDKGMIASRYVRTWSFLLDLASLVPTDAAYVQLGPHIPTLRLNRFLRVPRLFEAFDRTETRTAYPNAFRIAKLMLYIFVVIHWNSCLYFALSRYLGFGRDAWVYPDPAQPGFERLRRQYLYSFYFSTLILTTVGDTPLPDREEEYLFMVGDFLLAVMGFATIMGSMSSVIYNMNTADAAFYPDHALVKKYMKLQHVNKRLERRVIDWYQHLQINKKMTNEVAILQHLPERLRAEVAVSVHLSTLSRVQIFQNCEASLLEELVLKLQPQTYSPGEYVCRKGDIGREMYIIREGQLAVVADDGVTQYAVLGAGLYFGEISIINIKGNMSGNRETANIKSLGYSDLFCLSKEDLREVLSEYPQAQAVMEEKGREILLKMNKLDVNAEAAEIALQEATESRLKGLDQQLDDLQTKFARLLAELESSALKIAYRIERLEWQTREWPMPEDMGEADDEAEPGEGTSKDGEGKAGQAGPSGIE
T3 sequence (A0A8I5ZN27 1-858 isoform A0A8I5ZN27-2 R657E): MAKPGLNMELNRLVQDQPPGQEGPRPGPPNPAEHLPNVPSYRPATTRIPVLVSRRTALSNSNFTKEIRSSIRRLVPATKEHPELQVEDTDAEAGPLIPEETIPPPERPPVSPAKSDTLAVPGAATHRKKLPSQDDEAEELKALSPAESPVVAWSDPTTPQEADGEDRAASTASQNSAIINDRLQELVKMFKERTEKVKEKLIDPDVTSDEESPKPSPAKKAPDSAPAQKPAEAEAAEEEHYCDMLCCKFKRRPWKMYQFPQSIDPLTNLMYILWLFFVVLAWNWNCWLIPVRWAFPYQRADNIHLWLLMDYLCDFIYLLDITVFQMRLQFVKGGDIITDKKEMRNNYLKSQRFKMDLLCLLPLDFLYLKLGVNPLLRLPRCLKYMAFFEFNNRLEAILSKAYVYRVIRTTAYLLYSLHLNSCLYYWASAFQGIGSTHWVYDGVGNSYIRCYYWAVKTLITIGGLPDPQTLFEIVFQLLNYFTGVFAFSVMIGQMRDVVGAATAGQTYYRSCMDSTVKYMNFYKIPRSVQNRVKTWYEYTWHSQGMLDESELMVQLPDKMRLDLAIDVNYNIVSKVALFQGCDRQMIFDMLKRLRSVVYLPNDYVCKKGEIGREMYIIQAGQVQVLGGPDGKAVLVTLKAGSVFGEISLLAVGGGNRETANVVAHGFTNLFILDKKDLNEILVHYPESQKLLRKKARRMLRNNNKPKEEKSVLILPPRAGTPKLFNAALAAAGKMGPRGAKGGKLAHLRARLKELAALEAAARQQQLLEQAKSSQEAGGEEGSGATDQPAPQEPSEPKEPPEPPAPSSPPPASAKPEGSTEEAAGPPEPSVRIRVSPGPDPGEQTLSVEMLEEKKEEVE
Description: Ligand binding, confocal patch-clamp fluorometry. Set-up: key to Ligand binding to CNGA4 / Ligand binding to CNGB1b: +: ligand binding to the respective modulatory subunits was either observed or not; −: ligand binding to the respective modulatory subunits was either observed or not.
From the text: as §1
(§4) To verify the hypothesis that the CNGB1b subunit in CNGA2:A4:B1b channels binds cyclic nucleotides, we coexpressed CNGB1b with CNGA4RE and either CNGA2RE or CNGA2TM and measured ligand binding in the presence of 10 μM fcGMP. […] To verify the specificity of the binding to the CNGB1b subunit in these heterotetrameric channels, we coexpressed the CNGB1bRE subunit with CNGA2RE and CNGA4RE.
as §2

The target of assay [2] is T4, CNGA2RE:A4RE:B1b (Rattus norvegicus, UniProt A0A8I5ZN27+Q00195+Q64359, R430E/R538E).
T4 construct: expressed in transfected cells; host or cells: Xenopus laevis oocytes (cRNA injection), excised inside-out patches
T4 sequence (Q00195 whole entry R538E): as the sequence (Q00195 whole entry R538E) above
T4 sequence (Q64359 whole entry R430E): as the sequence (Q64359 whole entry R430E) above
T4 sequence (A0A8I5ZN27 1-858 isoform A0A8I5ZN27-2, stated change not applied): as the sequence (A0A8I5ZN27 1-858 isoform A0A8I5ZN27-2 R657E) above, with E657R counted along it
Description: Ligand binding, confocal patch-clamp fluorometry. Set-up: key to Ligand binding to CNGA4 / Ligand binding to CNGB1b: +: ligand binding to the respective modulatory subunits was either observed or not; −: ligand binding to the respective modulatory subunits was either observed or not.
From the text: as §1, §4, §2

Assay [3] has as its target T4, CNGA2RE:A4RE:B1b. Put plainly: Concentration-activation relationship and activation by fluorescent ligands, patch-clamp. It counts as biochemical. To be noted: 2 μM fHcAMP; of the saturating activation measured with 4 mM cGMP. The method, then:
as §3, with “In order to determine the apparent affinity of the modulatory subunits in heterotetrameric CNGA2:A4:B1b channels for cGMP, we coexpressed each of them with disabled neighbored subunits, generating themselves activation effects only at much higher ligand concentrations. In case of two well-separated current components, this would allow us to determine the EC50 value for the CNGB1b and CNGA4 subunit in functional heterotetrameric channels. Patch-clamp” for “Patch-clamp”, “The initial resistance was 0.7–1.3 MΩ.” left out, “mV. Fits of equations to data points were performed with the 8.1G® software (OriginLab Corporation, Northampton, U.S.A.). Concentration-activation relationships were obtained by relating the actual current amplitude, I, to the maximum current amplitude elicited by a saturating concentration of ligand, Imax, and plotting this ratio as function of the ligand concentration, x.” for “mV.”

For assay [4], the target named is T3, CNGA2RE:A4RE:B1bRE. Description: Channel activation during confocal patch-clamp fluorometry. To be noted: 2 μM fHcAMP; binding domain in CNGB1b also disabled. The class given is biochemical. As for the experimental part:
as §4
Figure 2 In a CNGA2:A4 background the CNGB1b subunit binds both fcGMP and fHcAMP and activates the channel. (a) Binding of fcGMP to the CNGB1b subunit evokes channel activation. Binding of fcGMP to CNGB1b was observed when coexpressed with either CNGA2RE:A4RE or CNGA2TM:A4RE (upper diagram). […] (b) Binding of fHcAMP to CNGB1b was observed when coexpressed with both CNGA2RE and CNGA4RE. When disabling the binding domain of CNGB1b, the fluorescence intensity was nearly abolished. Correspondingly, CNGA2RE:A4RE:B1b channels were activated by the ligand only when the CNGB1b binding site was available.
as §3, §2

T1 sequence (Q00195 whole entry R538E): as the sequence (Q00195 whole entry R538E) above
T1 sequence (A0A8I5ZN27 1-858 isoform A0A8I5ZN27-2, stated change not applied): as the sequence (A0A8I5ZN27 1-858 isoform A0A8I5ZN27-2 R657E) above, with E657R counted along it
T2 sequence (Q00195 whole entry): as the sequence (Q00195 whole entry R538E) above, with E538R counted along it
T2 sequence (Q64359 whole entry): as the sequence (Q64359 whole entry R430E) above, with E430R counted along it
T2 sequence (A0A8I5ZN27 1-858 isoform A0A8I5ZN27-2): as the sequence (A0A8I5ZN27 1-858 isoform A0A8I5ZN27-2 R657E) above, with E657R counted along it

Turning to 8-[DY-547]-AET-cAMP [fcAMP], the “ligand binding to the CNGB1b subunit (in words)” value at CNGA2RE:B1b (10 μM, CNGB1b coexpressed with CNGA2RE) is on record as “no ligand binding”. At CNGA2RE:B1b (10 μM), the “Ligand binding to CNGB1b” value is “−”.
Take 8-[DY-547]-AHT-cAMP [fHcAMP]: the “Ligand binding to CNGB1b” value was “−” on CNGA2RE:B1b (2 μM); “−” on CNGA2RE:A4RE:B1bRE [1] (2 μM, construct CNGA2RE:A4RE:B1bRE); “+” at CNGA2RE:A4RE:B1b [2] (2 μM, construct CNGA2RE:A4RE:B1b). In addition, the “binding to the CNGB1b subunit (in words)” value at CNGA2RE:B1b (fHcAMP, CNGA2RE:B1b channels) is on record as “did not detectably bind”; on CNGA2RE:A4RE:B1bRE [1] (2 μM fHcAMP, binding domain in CNGB1b also disabled), “abolished”; on CNGA2RE:A4RE:B1b [2] (2 μM fHcAMP, CNGA2RE:A4RE:B1b channels), “binds”. Further, the EC50 at CNGA2:A4:B1b channels (CNGA2:A4:B1b, steady-state, +10 mV, equation (1), 7-10 patches) is 590 nM. In addition, the H at CNGA2:A4:B1b channels (Hill coefficient, CNGA2:A4:B1b, steady-state, +10 mV) was 1.2. Besides, on CNGA2:A4:B1b channels (relative to fcAMP), the “potency to open CNGA2:A4:B1b channels compared to fcAMP” value was “eight times higher potency”. At CNGA2RE:A4RE:B1b [3], this substance registered a channel activation of 3.1 ± 0.7%. Besides, the activation entry at CNGA2RE:A4RE:B1bRE [4] is “abolished”.

One may read the EC50 as the concentration needed to bring the measured effect to its halfway point.
